Measured values taken from the supplement of paper PMC5321775.

Columns and labels:
[1] = system: Caenorhabditis briggsae AF16; experiment: mean adult lifespan of treated plate (days); higher = longer lifespan; details: exposure: chronic from day 1 of adulthood
Description: (§1)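 Dose-response lifespan assays in three C. briggsae strains (AF16, HK104, JU1348), run per plate (35-40 animals) on NGM with live OP50-1 and 51 uM FUdR at 20 C. Compound was added to the plate surface and worms were exposed from the first day of adulthood.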

[2] = system: Caenorhabditis briggsae HK104; experiment: as above; details: exposure: chronic from day 1 of adulthood
Description: as §1

[3] = system: Caenorhabditis briggsae JU1348; experiment: as above; details: exposure: chronic from day 1 of adulthood
Description: as §1

[4] = system: Caenorhabditis briggsae AF16; experiment: mean adult lifespan of treated cohort (days); higher = longer lifespan; details: exposure: chronic from day 1 of adulthood, single dose per compound (concentration not stated in sheet)
Description: (§2)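 Caenorhabditis lifespan assay (CITP). Synchronised hermaphrodites were moved on the first day of adulthood onto 35 mm NGM plates with live E. coli OP50-1 and 51 uM FUdR, with the compound spread on the plate. Worms were kept at 20 C and scored for survival.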

[5] = system: Caenorhabditis briggsae HK104; experiment: as above; details: exposure: chronic from day 1 of adulthood, single dose per compound (concentration not stated in sheet)
Description: as §2

[6] = system: Caenorhabditis briggsae JU1348; experiment: as above; details: exposure: chronic from day 1 of adulthood, single dose per compound (concentration not stated in sheet)
Description: as §2

[7] = system: Caenorhabditis elegans JU775; experiment: as above; details: exposure: chronic from day 1 of adulthood, single dose per compound (concentration not stated in sheet)
Description: as §2

[8] = system: Caenorhabditis elegans MY16; experiment: as above; details: exposure: chronic from day 1 of adulthood, single dose per compound (concentration not stated in sheet)
Description: as §2

[9] = system: Caenorhabditis elegans N2; experiment: as above; details: exposure: chronic from day 1 of adulthood, single dose per compound (concentration not stated in sheet)
Description: as §2

[10] = system: Caenorhabditis briggsae AF16; experiment: Kaplan-Meier median lifespan of treated plate (days); higher = longer lifespan; details: exposure: chronic from day 1 of adulthood
Description: as §1

[11] = system: Caenorhabditis briggsae HK104; experiment: as above; details: exposure: chronic from day 1 of adulthood
Description: as §1

[12] = system: Caenorhabditis briggsae JU1348; experiment: as above; details: exposure: chronic from day 1 of adulthood
Description: as §1

[13] = system: Caenorhabditis briggsae AF16; experiment: Kaplan-Meier median lifespan of treated cohort (days); higher = longer lifespan; details: exposure: chronic from day 1 of adulthood, single dose per compound (concentration not stated in sheet)
Description: as §2

[14] = system: Caenorhabditis briggsae HK104; experiment: as above; details: exposure: chronic from day 1 of adulthood, single dose per compound (concentration not stated in sheet)
Description: as §2

[15] = system: Caenorhabditis briggsae JU1348; experiment: as above; details: exposure: chronic from day 1 of adulthood, single dose per compound (concentration not stated in sheet)
Description: as §2

[16] = system: Caenorhabditis elegans JU775; experiment: as above; details: exposure: chronic from day 1 of adulthood, single dose per compound (concentration not stated in sheet)
Description: as §2

[17] = system: Caenorhabditis elegans MY16; experiment: as above; details: exposure: chronic from day 1 of adulthood, single dose per compound (concentration not stated in sheet)
Description: as §2

[18] = system: Caenorhabditis elegans N2; experiment: as above; details: exposure: chronic from day 1 of adulthood, single dose per compound (concentration not stated in sheet)
Description: as §2

Cc1ccc2c(c1)sc(-c1ccc(N(C)C)cc1)[n+]2C [Thioflavin T]
Details | Kaplan-Meier median lifespan, [10] | Kaplan-Meier median lifespan, [11] | Kaplan-Meier median lifespan, [12] | mean adult lifespan of treated plate, [1] | mean adult lifespan of treated plate, [2] | mean adult lifespan of treated plate, [3]
0.5 µM | – | – | 24 | – | – | 24.1
5 µM | – | – | 23.6 | – | – | 24.3
5.3 µM | 28 | 33 | – | 28.1 | 33.5 | 19.49
25 µM | – | – | 26.2 | – | – | 25.9
26.5 µM | 24 | 35 | 33 | 17 | 30.8 | 28.3
100 µM | – | – | 22.4 | – | – | 21.5
106 µM | 5.67 | 6 | 4.67 | 5.48 | 5.61 | 5.01
530 µM | 5.67 | 5.5 | 4 | 5.75 | 5.71 | 4.33

Details | Kaplan-Meier median lifespan | mean adult lifespan of treated cohort
[4] | – | 31.3
[5] | – | 39.5
[6] | – | 27.6
[7] | – | 25.5
[8] | – | 26.7
[9] | – | 20.2
[13] | 31.7 | –
[14] | 41.4 | –
[15] | 28.1 | –
[16] | 27.7 | –
[17] | 27.2 | –
[18] | 21.4 | –
